The record followed here is article PMC6761534 (Antimicrobial Agents and Chemotherapy, 2019).

Structures are written as SMILES. In brackets after ≈: the same amount, converted by molar mass.

In experiment [1] the test system is M. bovis BCG. The experiment in a line: microbe, parasite or virus in culture. The experiment is classed as cell-based. As to conditions: Mycobacterium tuberculosis variant bovis BCG, 24 h, read-out: IC50 ATP depletion (intrabacterial ATP).
Experiment [2] concerns mycobacterial F-ATP synthase (ATPase activity). The experiment is described as follows: Continuous ATP hydrolysis assay with M. smegmatis inverted membrane vesicles. The experiment is classed as biochemical, Mycobacterium smegmatis.
Experiment [3] concerns the target mycobacterial F-ATP synthase (Mycobacterium bovis, UniProt A1KI93+A1KI99). The experiment is described as follows: biochemical. More on the design: species or system Mycobacterium bovis BCG.
Experiment [4] addresses M. smegmatis F-ATP synthase (Mycolicibacterium smegmatis, UniProt A0R1Z9+A0R205). The experiment is described as follows: biochemical. On the set-up: species or system Mycobacterium smegmatis.
Experiment [5] deals with M. smegmatis ε subunit overexpresser strain. The experiment in a line: microbe, parasite or virus in culture. The experiment is classed as cell-based. As to conditions: Mycolicibacterium smegmatis, 24 h, 1 day, read-out: MIC50 ± SD, ε overexpresser.
For experiment [6], the system named is M. tuberculosis H37Rv. The experiment in a line: microbe, parasite or virus in culture. The experiment is classed as cell-based. As to conditions: Mycobacterium tuberculosis, 168 h, read-out: M. tuberculosis H37Rv MIC90.
For experiment [7], the system named is M. smegmatis WT. The experiment is described as follows: microbe, parasite or virus in culture. The experiment is classed as cell-based, Mycobacterium smegmatis. The note with it: Mycolicibacterium smegmatis; for MIC50: 24 h, read-out: MIC50 ± SD, M. smegmatis WT.
The test system of experiment [8] is M. bovis BCG. The experiment is described as follows: microbe, parasite or virus in culture. The experiment is classed as cell-based. The note with it: Mycobacterium tuberculosis variant bovis BCG, 120 h, read-out: Growth inhibition MIC90.

The term IC50 denotes the concentration at which inhibition is half-maximal.

Chain of mycobacterial F-ATP synthase (A1KI93 whole entry, looked up): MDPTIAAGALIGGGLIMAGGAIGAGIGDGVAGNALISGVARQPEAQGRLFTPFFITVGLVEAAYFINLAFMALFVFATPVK
Chain of mycobacterial F-ATP synthase (A1KI99 whole entry, looked up): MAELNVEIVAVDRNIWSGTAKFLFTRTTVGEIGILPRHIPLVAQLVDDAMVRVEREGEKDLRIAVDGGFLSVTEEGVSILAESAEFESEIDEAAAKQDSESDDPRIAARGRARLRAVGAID

Regarding `COc1nc2ccc(Br)cc2cc1[C@@H](c1ccccc1)[C@@](O)(CCN(C)C)c1cccc2ccccc12` [BDQ, Bedaquiline, reference compound], the results for the IC50 in experiment [1], in experiment [3] and in experiment [4] were 9.16 nM, 5.3 nM and 0.2 nM, respectively. The “Inhibition of ATPase activity” value in experiment [2] (100 μM) amounted to 78%. In experiment [2] (250 μM), the “Inhibition of ATPase activity (in words)” value was “almost completely”. For the same compound, the MIC50 is 24 ± 0.1 nM (≈ 13.3 ng/mL) in experiment [5] and 12 ± 0.1 nM (≈ 6.67 ng/mL) in experiment [7]. Besides, the results for the MIC90 in experiment [6], in experiment [7] and in experiment [8] were 0.4 µM (≈ 222 ng/mL), 100 nM (≈ 55.6 ng/mL) and 70 nM (≈ 38.9 ng/mL), respectively.
Take `COc1cc([C@](O)(CCN(C)C)[C@@H](c2cc3cc(Br)ccc3nc2OC)c2cc(OC)nc(OC)c2OC)cc(OC)n1` [TBAJ-876]: the IC50 in experiment [1] was determined as 0.89 nM; in experiment [3] it was 0.031 nM; in experiment [4], 0.0059 nM. Further, the “Inhibition of ATPase activity (in words)” value in experiment [2] (BDQ-like) is “strong”. Also, the MIC50 in experiment [5] was determined as 2.75 ± 0.02 nM (≈ 1.81 ng/mL); in experiment [7], 1.1 ± 0.05 nM (≈ 0.723 ng/mL). In addition, the MIC90 in experiment [6] was determined as 0.125 µM (≈ 82.2 ng/mL); in experiment [7], 6.3 nM (≈ 4.14 ng/mL); in experiment [8], 7.2 nM (≈ 4.73 ng/mL).
As to `COc1cc([C@](O)(CCN(C)C)[C@@H](c2cc3cc(Br)ccc3nc2OC)c2ccnc(OC)c2OC)cc(OC)n1` [compound 5307], the 50% inhibitory concentration (IC50) in experiment [1] is 0.48 nM; in experiment [3], 0.091 nM; in experiment [4], 0.0087 nM. The “Inhibition of ATPase activity (in words)” value in experiment [2] (BDQ-like) is “strong”. Further, the MIC50 in experiment [5] is 8 ± 0.1 nM (≈ 5.02 ng/mL); in experiment [7] it was 0.8 ± 0.05 nM (≈ 0.502 ng/mL). Further, the MIC90 in experiment [6] turned out to be 0.07 µM (≈ 43.9 ng/mL); in experiment [7], 3.5 nM (≈ 2.2 ng/mL); in experiment [8], 3.6 nM (≈ 2.26 ng/mL).
In the case of `COc1cc([C@](O)(CCN(C)C)[C@@H](c2cc3cc(Br)ccc3nc2OC)c2cccc3c2OCCO3)cc(OC)n1` [compound 5316], the IC50 was 0.34 nM in experiment [1], 0.047 nM in experiment [3] and 0.011 nM in experiment [4]. Further, the “Inhibition of ATPase activity (in words)” value in experiment [2] (BDQ-like) is “strong”. The values for the MIC50 in experiment [5] and in experiment [7] were 1.68 ± 0.02 nM (≈ 1.05 ng/mL) and 0.6 ± 0.03 nM (≈ 0.375 ng/mL), respectively. For the same compound, the MIC90 in experiment [6] turned out to be 0.07 µM (≈ 43.7 ng/mL); in experiment [7] it was 4.6 nM (≈ 2.87 ng/mL); in experiment [8] it was 3.6 nM (≈ 2.25 ng/mL).
In the case of `COc1cc([C@](O)(CCN(C)C)[C@H](c2cc(OC(C)C)cnc2OC)c2cc3cc(Br)ccc3nc2OC)cc(OC)n1` [compound 5366], the IC50 in experiment [1] came out at 0.32 nM; in experiment [3], 0.2 nM; in experiment [4], 0.0164 nM. In addition, the figures for the “Inhibition of ATPase activity” value in experiment [2] (100 μM) and in experiment [2] (250 μM) were 36% and 40%, respectively. Besides, the MIC50 in experiment [5] was 14.3 ± 0.07 nM (≈ 9.37 ng/mL); in experiment [7] it was 2.1 ± 0.06 nM (≈ 1.38 ng/mL). For the same compound, the MIC90 in experiment [6] came out at 0.03 µM (≈ 19.7 ng/mL); in experiment [7], 5.5 nM (≈ 3.61 ng/mL); in experiment [8], 3.4 nM (≈ 2.23 ng/mL).
